Measured values published in patent publication US20240024488A1, “COMPOUNDS AND USES THEREOF” (Foghorn Therapeutics Inc., priority 2020, published 2024).

Columns and labels:
HiBit-BRM fusion protein = molecular target: T1, HiBit-BRM fusion protein (Homo sapiens, UniProt P51531); experiment: HiBiT-BRM cell-based degradation assay (Nano-Glo HiBiT Lytic Detection, 24 h); settings: HeLa cell line expressing HiBiT-BRM; for DC50: read-out: BRM HiBit Degradation IC50
T1 construct: expressed in transfected cells
In short: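 HeLa cells stably expressing HiBiT-BRM were dosed with compounds (10-point 3-fold dilutions, 30 μM final top dose, duplicate) for 24 h. HiBiT signal was read by lytic LgBiT complementation luminescence. Percent degradation was normalised to DMSO (high control) and 2 μM of a reference BRM/BRG1 degrader (low control).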

[1] = molecular target: T2, HiBit-BRG1 fusion protein (Homo sapiens, UniProt P51532); experiment: HiBiT-BRG1 cell-based degradation assay (Nano-Glo HiBiT Lytic Detection, 24 h); settings: HeLa cell line expressing HiBit-BRG1 and LgBit; for Dmax: read-out: BRG1 HiBit Degradation Maximum (%); for DC50: read-out: BRMG1 HiBit Degradation IC50
T2 construct: expressed in transfected cells
In short: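 Luminescence from reconstituted NanoBiT luciferase after lytic detection served as read-out of remaining HiBit-BRG1 in stable HeLa cells, which also express LgBit. Cells were seeded at 5000 per well and incubated with compound for 24 h. DMSO and a 2 μM known degrader defined the control range.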

T1 sequence (P51531 whole entry, the tested form may be a part): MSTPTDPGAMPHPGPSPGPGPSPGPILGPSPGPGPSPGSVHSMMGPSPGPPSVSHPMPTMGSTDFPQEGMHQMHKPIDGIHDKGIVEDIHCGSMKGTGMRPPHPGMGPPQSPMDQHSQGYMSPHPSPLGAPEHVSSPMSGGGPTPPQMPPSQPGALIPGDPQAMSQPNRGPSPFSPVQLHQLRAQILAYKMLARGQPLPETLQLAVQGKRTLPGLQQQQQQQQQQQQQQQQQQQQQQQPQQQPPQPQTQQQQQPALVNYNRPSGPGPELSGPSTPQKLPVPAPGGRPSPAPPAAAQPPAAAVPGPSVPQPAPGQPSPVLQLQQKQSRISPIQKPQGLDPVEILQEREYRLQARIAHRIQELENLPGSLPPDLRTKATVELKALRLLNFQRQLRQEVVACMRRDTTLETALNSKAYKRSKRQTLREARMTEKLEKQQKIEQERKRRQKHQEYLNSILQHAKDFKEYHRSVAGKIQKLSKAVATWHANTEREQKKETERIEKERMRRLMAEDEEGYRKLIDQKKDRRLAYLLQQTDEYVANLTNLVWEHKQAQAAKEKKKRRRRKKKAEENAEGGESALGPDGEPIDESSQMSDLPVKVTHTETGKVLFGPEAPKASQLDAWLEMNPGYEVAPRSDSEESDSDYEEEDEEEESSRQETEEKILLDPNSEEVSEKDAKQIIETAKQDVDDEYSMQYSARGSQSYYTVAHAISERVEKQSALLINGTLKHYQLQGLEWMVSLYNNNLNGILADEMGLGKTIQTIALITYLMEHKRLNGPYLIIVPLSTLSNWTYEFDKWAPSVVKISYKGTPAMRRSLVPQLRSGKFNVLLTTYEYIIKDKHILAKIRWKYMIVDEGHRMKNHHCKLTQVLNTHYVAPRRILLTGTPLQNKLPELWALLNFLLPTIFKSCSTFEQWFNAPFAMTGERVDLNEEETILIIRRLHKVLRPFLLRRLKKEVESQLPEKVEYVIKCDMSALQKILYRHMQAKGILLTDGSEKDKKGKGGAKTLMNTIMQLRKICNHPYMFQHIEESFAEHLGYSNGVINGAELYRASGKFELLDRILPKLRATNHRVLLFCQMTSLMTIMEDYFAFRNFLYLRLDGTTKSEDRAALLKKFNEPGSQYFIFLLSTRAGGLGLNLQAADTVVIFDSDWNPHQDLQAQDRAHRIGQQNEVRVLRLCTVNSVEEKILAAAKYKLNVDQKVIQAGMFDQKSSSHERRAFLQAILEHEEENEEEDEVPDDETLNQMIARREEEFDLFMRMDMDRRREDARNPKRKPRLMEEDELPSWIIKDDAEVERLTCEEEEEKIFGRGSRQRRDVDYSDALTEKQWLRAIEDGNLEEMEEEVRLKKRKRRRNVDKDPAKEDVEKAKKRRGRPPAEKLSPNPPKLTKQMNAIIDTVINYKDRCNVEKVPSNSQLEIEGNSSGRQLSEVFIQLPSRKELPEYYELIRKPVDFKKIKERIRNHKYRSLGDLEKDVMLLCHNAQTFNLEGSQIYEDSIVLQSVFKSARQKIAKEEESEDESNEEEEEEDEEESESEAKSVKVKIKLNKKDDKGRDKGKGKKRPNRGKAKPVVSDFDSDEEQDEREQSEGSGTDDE
T2 sequence (P51532 whole entry, the tested form may be a part): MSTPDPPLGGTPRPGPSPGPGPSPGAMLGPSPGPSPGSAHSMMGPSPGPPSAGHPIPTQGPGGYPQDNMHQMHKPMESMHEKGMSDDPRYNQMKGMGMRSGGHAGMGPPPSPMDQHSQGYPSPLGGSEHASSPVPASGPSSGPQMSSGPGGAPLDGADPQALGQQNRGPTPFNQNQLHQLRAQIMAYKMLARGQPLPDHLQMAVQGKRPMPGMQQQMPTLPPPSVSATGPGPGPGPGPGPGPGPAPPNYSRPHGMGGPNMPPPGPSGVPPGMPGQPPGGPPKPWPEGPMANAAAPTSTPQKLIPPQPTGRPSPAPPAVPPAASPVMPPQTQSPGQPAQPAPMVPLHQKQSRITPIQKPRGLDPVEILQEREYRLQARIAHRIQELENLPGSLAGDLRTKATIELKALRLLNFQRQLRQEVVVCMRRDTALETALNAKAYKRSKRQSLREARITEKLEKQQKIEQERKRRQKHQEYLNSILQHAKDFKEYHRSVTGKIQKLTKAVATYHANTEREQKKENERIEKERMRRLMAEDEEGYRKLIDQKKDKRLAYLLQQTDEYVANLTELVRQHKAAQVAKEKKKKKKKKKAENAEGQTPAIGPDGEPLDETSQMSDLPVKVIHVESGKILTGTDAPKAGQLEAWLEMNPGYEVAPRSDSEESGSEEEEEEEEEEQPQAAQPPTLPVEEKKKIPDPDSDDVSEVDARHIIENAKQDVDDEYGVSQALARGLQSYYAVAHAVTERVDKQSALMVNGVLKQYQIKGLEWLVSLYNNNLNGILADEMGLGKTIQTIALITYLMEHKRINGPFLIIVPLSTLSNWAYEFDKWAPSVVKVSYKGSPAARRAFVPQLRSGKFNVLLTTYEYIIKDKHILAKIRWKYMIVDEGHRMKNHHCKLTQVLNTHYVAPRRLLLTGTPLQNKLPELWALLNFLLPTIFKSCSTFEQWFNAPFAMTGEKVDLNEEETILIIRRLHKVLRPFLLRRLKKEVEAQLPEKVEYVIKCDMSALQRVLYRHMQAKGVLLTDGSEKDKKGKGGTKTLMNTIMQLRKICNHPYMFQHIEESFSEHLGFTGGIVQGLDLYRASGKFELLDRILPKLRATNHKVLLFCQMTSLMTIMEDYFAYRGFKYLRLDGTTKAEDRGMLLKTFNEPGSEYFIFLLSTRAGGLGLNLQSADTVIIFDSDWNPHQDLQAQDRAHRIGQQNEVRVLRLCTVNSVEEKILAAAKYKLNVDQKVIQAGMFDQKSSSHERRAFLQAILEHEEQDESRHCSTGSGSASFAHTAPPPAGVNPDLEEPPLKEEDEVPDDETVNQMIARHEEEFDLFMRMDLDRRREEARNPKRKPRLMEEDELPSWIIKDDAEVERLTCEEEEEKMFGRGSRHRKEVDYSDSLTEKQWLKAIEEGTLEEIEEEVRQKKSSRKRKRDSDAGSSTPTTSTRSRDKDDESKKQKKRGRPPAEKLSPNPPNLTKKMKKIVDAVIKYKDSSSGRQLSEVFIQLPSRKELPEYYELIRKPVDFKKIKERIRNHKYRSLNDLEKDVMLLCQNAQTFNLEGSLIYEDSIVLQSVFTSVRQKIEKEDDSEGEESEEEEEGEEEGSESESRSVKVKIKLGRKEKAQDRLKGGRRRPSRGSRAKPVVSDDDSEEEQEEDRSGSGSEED

Structure (SMILES) | Dmax [1] [%] | DC50 (HiBit-BRM fusion protein) [nM] | DC50 [1] [nM] | BRM HiBit Degradation Maximum (%) (HiBit-BRM fusion protein)
Cc1ncsc1-c1ccc([C@H](C)NC(=O)[C@@H]2C[C@@H](O)CN2C(=O)[C@@H](c2cc(OCCN3CC(c4cc5cc(-c6ccccc6O)nnc5n4C(F)F)C3)no2)C(C)C)cc1 (racemic) [Compound 148, (2S,4R)-1-[(2R)-2-[3-(2-{3-[7-(difluoromethyl)-3-(2-hydroxyphenyl)pyrrolo[2,3-c]pyridazin-6-yl]azetidin-1-yl}ethoxy)-1,2-oxazol-5-yl]-3-methylbutanoyl]-4-hydroxy-N-[(1S)-1-[4-(4-methyl-1,3-thiazol-5-yl)phenyl]ethyl]pyrrolidine-2-carboxamide] | < 50 |  |  | C (“C” indicates maximum degradation < 50%)
Cc1ncsc1-c1ccc([C@H](C)NC(=O)[C@@H]2C[C@@H](O)CN2C(=O)[C@H](c2cc(N(C)CCN3CCc4[nH]c5nnc(-c6ccccc6O)cc5c4C3)no2)C(C)C)cc1 (racemic) [Compound 149, (2S,4R)-4-hydroxy-1-((S)-2-(3-((2-(3-(2-hydroxyphenyl)-5,7,8,9-tetrahydro-6H-pyrido[3′,4′:4,5]pyrrolo[2,3-c]pyridazin-6-yl)ethyl)(methyl)amino)isoxazol-5-yl)-3-methylbutanoyl)-N-((S)-1-(4-(4-methylthiazol-5-yl)phenyl)ethyl)pyrrolidine-2-carboxamide] | < 50 |  |  | C (“C” indicates maximum degradation < 50%)
Cc1ncsc1-c1ccc([C@H](C)NC(=O)[C@@H]2C[C@@H](O)CN2C(=O)[C@@H](c2cc(OCCN3CCC34CC(c3c[nH]c5nnc(-c6ccccc6O)cc35)C4)no2)C(C)C)cc1 (mixture of isomers) [Compound 151, (2S,4R)-4-hydroxy-1-((R)-2-(3-(2-(6-(3-(2-hydroxyphenyl)-7H-pyrrolo[2,3-c]pyridazin-5-yl)-1-azaspiro[3.3]heptan-1-yl)ethoxy)isoxazol-5-yl)-3-methylbutanoyl)-N-((S)-1-(4-(4-methylthiazol-5-yl)phenyl)ethyl)pyrrolidine-2-carboxamide] | < 50 | > 100 |  | A (“A” indicates maximum degradation ≥ 75%)
Cc1ncsc1-c1ccc([C@H](C)NC(=O)[C@@H]2C[C@@H](O)CN2C(=O)[C@@H](c2cc(N(C)CCN3CCc4[nH]c5nnc(-c6ccccc6O)cc5c4C3)no2)C(C)C)cc1 (racemic) [Compound 182, (2S,4R)-4-hydroxy-1-((R)-2-(3-((2-(3-(2-hydroxyphenyl)-5,7,8,9-tetrahydro-6H-pyrido[3′,4′:4,5]pyrrolo[2,3-c]pyridazin-6-yl)ethyl)(methyl)amino)isoxazol-5-yl)-3-methylbutanoyl)-N-((S)-1-(4-(4-methylthiazol-5-yl)phenyl)ethyl)pyrrolidine-2-carboxamide] | < 50 |  |  | C (“C” indicates maximum degradation < 50%)
Cc1ncsc1-c1ccc([C@H](C)NC(=O)[C@@H]2C[C@@H](O)CN2C(=O)[C@@H](c2cc(N3CCC(N4CCc5[nH]c6nnc(-c7ccccc7O)cc6c5C4)CC3)no2)C(C)C)cc1 (racemic) [Compound 183, (2S,4R)-4-hydroxy-1-((R)-2-(3-(4-(3-(2-hydroxyphenyl)-5,7,8,9-tetrahydro-6H-pyrido[3′,4′:4,5]pyrrolo[2,3-c]pyridazin-6-yl)piperidin-1-yl)isoxazol-5-yl)-3-methylbutanoyl)-N-((S)-1-(4-(4-methylthiazol-5-yl)phenyl)ethyl)pyrrolidine-2-carboxamide] | < 50 | > 100 |  | A (“A” indicates maximum degradation ≥ 75%)

Further lines, with some results ahead:

Dmax [1] [%] | DC50 (HiBit-BRM fusion protein) [nM] | DC50 [1] [nM] | Structure (SMILES) | BRM HiBit Degradation Maximum (%) (HiBit-BRM fusion protein)
> 75 | > 10 | > 100 | Cc1ncsc1-c1ccc([C@H](C)NC(=O)[C@@H]2C[C@@H](O)CN2C(=O)[C@@H](c2cc(OCCN3CCC34CC(c3cc5cc(-c6ccccc6O)nnc5[nH]3)C4)no2)C(C)C)cc1 (mixture of isomers) [Compound 161, (2S,4R)-4-hydroxy-1-((R)-2-(3-(2-(6-(3-(2-hydroxyphenyl)-7H-pyrrolo[2,3-c]pyridazin-6-yl)-1-azaspiro[3.3]heptan-1-yl)ethoxy)isoxazol-5-yl)-3-methylbutanoyl)-N-((S)-1-(4-(4-methylthiazol-5-yl)phenyl)ethyl)pyrrolidine-2-carboxamide] | A (“A” indicates maximum degradation ≥ 75%)
> 75 | > 10 | > 100 | Cc1ncsc1-c1ccc([C@H](C)NC(=O)[C@@H]2C[C@@H](O)CN2C(=O)[C@@H](c2cc(OCCN3CC(c4[nH]c5nnc(-c6ccccc6O)cc5c4C4CC4)C3)no2)C(C)C)cc1 (racemic) [Compound 164, (2S,4R)-1-((R)-2-(3-(2-(3-(5-cyclopropyl-3-(2-hydroxyphenyl)-7H-pyrrolo[2,3-c]pyridazin-6-yl)azetidin-1-yl)ethoxy)isoxazol-5-yl)-3-methylbutanoyl)-4-hydroxy-N-((S)-1-(4-(4-methylthiazol-5-yl)phenyl)ethyl)pyrrolidine-2-carboxamide] | A (“A” indicates maximum degradation ≥ 75%)
< 50 | > 1000 |  | Cc1ncsc1-c1ccc([C@H](C)NC(=O)[C@@H]2C[C@@H](O)CN2C(=O)[C@@H](c2cc(OCCN3CC4(CNc5nnc(-c6ccccc6O)cc54)C3)no2)C(C)C)cc1 (racemic) [Compound 177, (2S,4R)-4-hydroxy-1-((R)-2-(3-(2-(3′-(2-hydroxyphenyl)-6′,7′-dihydrospiro[azetidine-3,5′-pyrrolo[2,3-c]pyridazin]-1-yl)ethoxy)isoxazol-5-yl)-3-methylbutanoyl)-N-((S)-1-(4-(4-methylthiazol-5-yl)phenyl)ethyl)pyrrolidine-2-carboxamide] | B (“B” indicates maximum degradation ≥ 50%)
> 75 | > 100 | > 1000 | Cc1ncsc1-c1ccc([C@H](C)NC(=O)[C@@H]2C[C@@H](O)CN2C(=O)[C@@H](c2cc(OCCN3CC(COc4c[nH]c5nnc(-c6ccccc6O)cc45)C3)no2)C(C)C)cc1 (racemic) [Compound 185, (2S,4R)-4-hydroxy-1-[(2R)-2-(3-{2-[3-{{[3-(2-hydroxyphenyl)-7H-pyrrolo[2,3-c]pyridazin-5-yl]oxy}methyl)azetidin-1-yl]ethoxy}-1,2-oxazol-5-yl)-3-methylbutanoyl]-N-[(1S)-1-[4-(4-methyl-1,3-thiazol-5-yl)phenyl]ethyl]pyrrolidine-2-carboxamide] | A (“A” indicates maximum degradation ≥ 75%)
> 75 | > 10 | > 100 | Cc1ncsc1-c1ccc([C@H](C)NC(=O)[C@@H]2C[C@@H](O)CN2C(=O)[C@@H](c2cc(OCCN3CC4(Cc5cc(-c6ccccc6O)nnc5N4)C3)no2)C(C)C)cc1 (racemic) [Compound 186, (2S,4R)-4-hydroxy-1-((R)-2-(3-(2-(3′-(2-hydroxyphenyl)-5′,7′-dihydrospiro[azetidine-3,6′-pyrrolo[2,3-c]pyridazin]-1-yl)ethoxy)isoxazol-5-yl)-3-methylbutanoyl)-N-((S)-1-(4-(4-methylthiazol-5-yl)phenyl)ethyl)pyrrolidine-2-carboxamide] | A (“A” indicates maximum degradation ≥ 75%)
